Where “and” joins values, the source holds several entries; their conditions need not be identical. Identical values can stand only once.
Tests used:
[1] = test system: L. donovani promastigotes; assay: Antileishmanial activity against L. donovani promastigotes (MTT assay); format: cell-based; conditions: Leishmania donovani; promastigotes, 72 h, MTT; read-out: EC50 L. donovani Pro.
Description: The Leishmania species used in this study were L. donovani (MHOM/IN/00/DEVI) purchased from CNR Leishmania (Montpellier, France). Leishmania promastigote forms were grown in Schneider’s Drosophila medium (Life Technologies, Saint-Aubin, France) supplemented with 100 U/mL penicillin, 100 µg/mL streptomycin, 2 mM L-glutamine and 20% FCS (Life Technologies, Saint-Aubin, France) at 27 °C. The in vitro evaluation of the tested compound’s antileishmanial activity on promastigote forms was carried out by MTT assay according to the Mosmann protocol with some modifications. Briefly, promastigotes in log-phase were incubated at an average density of 10^6 parasites/mL in sterile 96-well plates with various concentrations of compound dissolved in DMSO (final concentration less than 0.5% v/v), in duplicate. Appropriate controls treated with DMSO, Miltefosine, Amphotericin B, Fexinidazole, and Fexinidazole sulfone (reference drugs purchased from Sigma-Aldrich, Saint-Louis, Missouri, USA) were added to each set of experiments. After a 72 h incubation period at 27 °C, parasitic metabolic activity was determined. Each plate-well was then microscope-analyzed to detect any precipitate formation. 20 µL of MTT (3-(4,5-dimethylthiazol-2-yl)-2,5-diphenyltetrazolium bromide) (Sigma-Aldrich, Saint-Louis, Missouri, USA) solution (5 mg/mL in PBS) were added to each well and incubated for 4 h at 27 °C. The enzyme reaction was then stopped by addition of 100 µL of 50% isopropanol–10% sodium dodecyl sulfate. Plates were shaken vigorously at 300 rpm for 10 min. The absorbance was measured at 570 nm in a BIO-TEK Elx808 (Biotek, Colmar, France) absorbance microplate reader. […] EC50 values were calculated by non-linear regression analysis processed dose-response curves, using TableCurve 2D V5.0 software (Systat Software Inc. (Palo Alto, CA, USA)). EC50 values represent the mean value calculated from at least three separate experiments.

[2] = test system: L. infantum promastigotes; assay: Antileishmanial activity against L. infantum promastigotes (luciferase assay); format: cell-based; conditions: Leishmania infantum, 72 h, read-out: EC50 L. infantum Pro.
Description: L. infantum promastigotes (MHOM/MA/67/ITMAP-263, CNR Leishmania, Montpellier, France, expressing luciferase activity) were used in the following tests. The effects of the tested compounds on the growth of L. infantum promastigotes were assessed by Luciferase Assay. Briefly, promastigotes in log-phase in RPMI 1640 medium supplemented with 10% fetal calf serum (FCS), 2 mM L-glutamine and antibiotics (100U/mL penicillin, 100 µg/mL streptomycin and 50µg/mL geneticin), were incubated at an average density of 10^6 parasites/mL (100 µL/well) in sterile 96-well plates with various concentrations of compounds dissolved in DMSO (final concentration less than 0.5% v/v), in duplicate. Appropriate controls (100 µL/well) treated by DMSO and reference drugs (purchased for the majority from Sigma Aldrich) were added to each set of experiments. After a 72 h incubation period at 24 °C, each plate-well was then microscope-examined for detecting possible precipitate formation. To estimate the luciferase activities of promastigotes, 80 µL of each well are transferred in white 96-well plates, Steady Glow reagent (Promega) was added according to manufacter’s instructions, and plates were incubated for 2 min. The luminescence was measured in a FLUOstar Omega (BMG Labtech, Champigny-sur-Marne, France). […] EC50 were calculated by non-linear regression analysis processed on dose–response curves, using TableCurve 2D V5 software.

[3] = test system: L. infantum axenic amastigotes; assay: Antileishmanial activity on L. infantum axenic amastigotes (luciferase assay); format: cell-based; conditions: Leishmania infantum, 48 h, read-out: EC50 L. infantum Axenic Ama.
Description: L. infantum promastigotes were harvested in logarithmic phase of growth by centrifugation at 900× g for 10 min. The supernatant was removed carefully and was replaced by the same volume of RPMI 1640 complete medium at pH 5.4 and incubated for 24 h at 24 °C. The acidified promastigotes were then incubated for 24 h at 37 °C in a ventilated flask to transform them into axenic amastigotes. The amastigote stage was checked both by electron microscopy (short flagellum with small bulbous tip extending beyond a spherical cell body) and RT-PCR to confirm the overexpression of ATG8 and amastin genes in amastigotes, relative to promastigotes. The effects of the tested compounds on the growth of L. infantum axenic amastigotes were assessed as follows. L. infantum amastigotes were incubated at a density of 2 × 10^6 parasites/mL in sterile 96-well plates with various concentrations of compounds dissolved in DMSO (final concentration less than 0.5% v/v), in duplicate. Appropriate controls treated with DMSO, amphotericin B, miltefosine, fexinidazole and fexinidazole sulfone were added to each set of experiments. After a 48 h incubation period at 37 °C, each plate-well was then microscopically examined to detect any precipitate formation.
• Luciferase activity and determination of EC50 were performed as above.

[4] = Cytotoxicity evaluation on HepG2 cell line (MTT); format: cell-based; conditions: human, HepG2 cells
Description: The tested molecules’ cytotoxicity was assessed according to the method of Mosmann with slight modifications. […] Triplicate assays were performed for each sample. Each plate-well was then microscope-examined to detect possible precipitate formation before the medium was aspirated from the wells. 100 µL of MTT (3-(4,5-dimethyl-2-thiazolyl)-2,5-diphenyl-2H-tetrazolium bromide) solution (0.5 mg/mL in medium without FCS) were then added to each well. […] Plates were shaken vigorously (700 rpm) for 10 min. The absorbance was measured at 570 nm with 630 nm as reference wavelength using a BIO-TEK ELx808 Absorbance Microplate Reader. DMSO was used as blank and doxorubicin (purchased from Sigma Aldrich) as positive control. Cell viability was calculated as percentage of control (cells incubated without compound). […] (Palo Alto, CA, USA)). CC50 values represent the mean value calculated from three separate experiments.

[5] = Cytotoxicity on THP-1 cell line (MTT); format: cell-based; conditions: human, THP-1 cells, THP1 cell line
Description: The plates were incubated for 72 h at 37 °C. Each well plate was then microscope-examined for detecting possible precipitate formation before the medium was aspirated from the wells. 100 µL of MTT solution (0.5 mg/mL in medium) were then added to each well. Cells were incubated for 2 h at 37 °C. […] Plates were shaken vigorously (300 rpm) for 10 min. The absorbance was measured at 570 nm using a BIO-TEK ELx808 Absorbance Microplate Reader. DMSO was used as blank and doxorubicin (purchased from Sigma Aldrich) as positive control. Cell viability was calculated as percentage of control (cells incubated with DMSO). […] (Palo Alto, CA, USA). CC50 values represent the mean value calculated from three separate experiments.

[6] = Redox potential of the nitro group by cyclic voltammetry; format: physicochemical; conditions: cyclic voltammetry in DMSO, corrected versus NHE
Description: Voltammetric measurements were carried out with a potentiostat Autolab PGSTAT100 (ECO Chemie, Utrecht, The Netherlands) controlled by GPES 4.09 software (ECO Chemie, Utrecht, The Netherlands). Experiments were performed at room temperature in a homemade airtight three–electrode cell connected to a vacuum/argon line. The reference electrode consisted of a saturated calomel electrode (SCE) separated from the solution by a bridge compartment. The counter electrode was a platinum wire of 1 cm^2 apparent surface. The working electrode was a GC microdisk (1.0 mm in diameter–Bio-logic SAS). The supporting electrolyte (nBu4N)[PF6] (Fluka, 99% puriss electrochemical grade) and the solvent DMSO (Sigma-Aldrich puriss p.a. dried <0.02% water) were used as received and simply degassed under argon. The solutions used during electrochemical analyses were typically 10^−3 M in compound and 0.1 M in supporting electrolyte. Before each measurement, the solutions were degassed by bubbling Ar, and the working electrode was polished with a polishing machine (Presi P230, Eybens, France). Under the experimental conditions adopted in this work, the half-wave potential (E1/2) of the ferrocene Fc+/Fc couple in DMSO was E1/2 = 0.45 V vs. SCE. Experimental peak potentials were measured versus SCE and converted to NHE by adding 0.241 V.

O=[N+]([O-])c1c(CS(=O)(=O)c2ccc(F)cc2)nc2c(Cl)cc(Cl)cn12 [Compound 1c, 6,8-Dichloro-2-[(4-fluorophenylsulfonyl)methyl]-3-nitroimidazo[1,2-a]pyridine]
EC50 [1]: 5.8 ± 1.9 µM
EC50 [2]: > 100 µM
EC50 [3]: > 1.6 µM
CC50 at 72 h [4]: > 7.8 µM
CC50 at 72 h [5]: 22.5 ± 1.1 µM
E0 (redox potential of the nitro group) [6]: −0.60 V and −0.6 V
melting point: 224 °C

O=[N+]([O-])c1c(CS(=O)(=O)c2ccc(C(F)(F)F)cc2)nc2c(Cl)cc(Cl)cn12 [Compound 1d, 6,8-Dichloro-3-Nitro-2-[(4-Trifluoromethylphenylsulfonyl)methyl]imidazo[1,2-a]pyridine]
EC50 [1]: 4.1 ± 0.4 µM
EC50 [2]: > 100 µM
EC50 [3]: 2.2 ± 0.1 µM
CC50 at 72 h [4]: > 15.6 µM
CC50 at 72 h [5]: 23.2 ± 1.9 µM
E0 (redox potential of the nitro group) [6]: −0.60 V and −0.6 V
melting point: 196 °C

O=[N+]([O-])c1c(CS(=O)(=O)c2ccc(Cl)cc2)nc2c(Br)cc(Cl)cn12 [Compound 2d, 8-Bromo-6-Chloro-2-[(4-Chlorophenylsulfonyl)methyl]-3-Nitroimidazo[1,2-a]pyridine]
EC50 [1]: 3 ± 0.4 µM
EC50 [2]: 3.5 ± 0.4 µM
EC50 [3]: 2.1 ± 0.3 µM
CC50 at 72 h [4]: > 12.5 µM
CC50 at 72 h [5]: > 31.2 µM
E0 (redox potential of the nitro group) [6]: −0.62 V
melting point: 222 °C

O=[N+]([O-])c1c(CS(=O)(=O)c2ccc(F)cc2)nc2c(Br)cc(Cl)cn12 [Compound 2e, 8-Bromo-6-Chloro-2-[(4-Fluorophenylsulfonyl)methyl]-3-Nitroimidazo[1,2-a]pyridine]
EC50 [1]: 2.8 ± 0.5 µM
EC50 [2]: > 100 µM
EC50 [3]: 3.3 ± 0.1 µM
CC50 at 72 h [4]: > 7.8 µM
CC50 at 72 h [5]: 33.3 ± 1.4 µM
E0 (redox potential of the nitro group) [6]: −0.64 V
melting point: 222 °C

CC(C)S(=O)(=O)Cc1nc2c(Br)cc(Cl)cn2c1[N+](=O)[O-] [Compound 2h, 8-Bromo-6-Chloro-2-[(isopropylsulfonyl)methyl]-3-Nitroimidazo[1,2-a]pyridine]
EC50 [1]: > 25 µM
EC50 [2]: 61.2 ± 3.4 µM
EC50 [3]: > 50 µM
CC50 at 72 h [4]: > 62.5 µM
CC50 at 72 h [5]: > 100 µM
E0 (redox potential of the nitro group) [6]: −0.65 V
melting point: 183 °C

O=[N+]([O-])c1c(CS(=O)(=O)C2CC2)nc2c(Br)cc(Cl)cn12 [Compound 2i, 8-Bromo-6-Chloro-2-[(cyclopropylsulfonyl]methyl)-3-Nitroimidazo[1,2-a]pyridine]
EC50 [1]: > 25 µM
EC50 [2]: > 50 µM
EC50 [3]: > 50 µM
CC50 at 72 h [4]: > 6.2 µM
CC50 at 72 h [5]: > 50 µM
E0 (redox potential of the nitro group) [6]: −0.63 V
melting point: 250 °C

O=[N+]([O-])c1c(CS(=O)(=O)CCC(F)(F)F)nc2c(Br)cc(Cl)cn12 [Compound 2j, 8-Bromo-6-Chloro-3-Nitro-2-[(3,3,3-Trifluoropropylsulfonyl)methyl]imidazo[1,2-a]pyridine]
EC50 [1]: 14.4 ± 1.6 µM
EC50 [2]: 1.9 ± 0.4 µM
EC50 [3]: 20.1 ± 5.6 µM
CC50 at 72 h [4]: 42.9 ± 12.3 µM
CC50 at 72 h [5]: 26 ± 1.2 µM
E0 (redox potential of the nitro group) [6]: −0.60 V and −0.6 V
melting point: 181 °C

CC(C)S(=O)(=O)Cc1nc2c(Sc3ccc(Cl)cc3)cc(Cl)cn2c1[N+](=O)[O-] [Compound 3g, 6-Chloro-8-[(4-Chlorophenyl)thio]-2-[(isopropylsulfonyl)methyl]-3-Nitroimidazo[1,2-a]pyridine]
EC50 [1]: 2.2 ± 0.3 µM
EC50 [2]: 2.4 ± 0.6 µM
EC50 [3]: 3.2 ± 0.1 µM
CC50 at 72 h [4]: 22.2 ± 5.5 µM
CC50 at 72 h [5]: > 31.2 µM
E0 (redox potential of the nitro group) [6]: −0.63 V
melting point: 208 °C

O=[N+]([O-])c1c(C[S+]([O-])c2ccccc2)nc2c(Br)cc(Cl)cn12 (centres unmarked) [Compound 5, 8-Bromo-6-Chloro-3-Nitro-2-[(phenylsulfinyl)methyl]imidazo[1,2-a]pyridine]
melting point: 198 °C

COc1cccc2c1C(=O)c1c(O)c3c(c(O)c1C2=O)C[C@@](O)(C(=O)CO)C[C@@H]3O[C@H]1C[C@H](N)[C@H](O)[C@H](C)O1 [Doxorubicin, reference compound]
CC50 at 72 h [4]: 0.2 ± 0.02 µM
CC50 at 72 h [5]: 0.8 ± 0.1 µM
